System: MV-4-11 cells
Test: Gene expression microarray analysis (Affymetrix PrimeView) and GSEA
Assay type: cell-based, human
Set-up: RFU PODN (11730768_x_at) / Fold change /veh PODN (11730768_x_at) / RFU LINC00158 (11744669_a_at) / Fold change /veh LINC00158 (11744669_a_at) / RFU DUSP10 (11751237_a_at) / Fold change /veh DUSP10 (11751237_a_at) / RFU ID3 (11757404_x_at) / Fold change /veh ID3 (11757404_x_at) / RFU PLEKHG5 (11737974_s_at) / Fold change /veh PLEKHG5 (11737974_s_at) / RFU LRRC4B (11730491_at) / Fold change /veh LRRC4B (11730491_at) / RFU GIMAP4 (11747438_a_at) / Fold change /veh GIMAP4 (11747438_a_at) / RFU KRT8 (11758183_x_at) / Fold change /veh KRT8 (11758183_x_at) / RFU CNN1 (11734310_a_at) / Fold change /veh CNN1 (11734310_a_at) / RFU VPS37D (11726825_at) / Fold change /veh VPS37D (11726825_at) / RFU C10orf10 (11716522_x_at) / Fold change /veh C10orf10 (11716522_x_at) / RFU KIR2DL2 /// KIR2DL4 /// KIR2DL5A /// KIR2DL5B /// KIR2DS1 /// KIR2DS2 /// KIR2DS3 /// KIR2DS4 /// KIR3DL3 /// KIR3DL3 /// KIR3DS1 (11738374_at) / Fold change /veh KIR2DL2 /// KIR2DL4 /// KIR2DL5A /// KIR2DL5B /// KIR2DS1 /// KIR2DS2 /// KIR2DS3 /// KIR2DS4 /// KIR3DL3 /// KIR3DL3 /// KIR3DS1 (11738374_at) / RFU C1QL1 (11718748_at) / Fold change /veh C1QL1 (11718748_at) / RFU TMPRSS4 (11747572_a_at) / Fold change /veh TMPRSS4 (11747572_a_at) / RFU HAMP (11756126_x_at) / Fold change /veh HAMP (11756126_x_at) / RFU RNFT2 (11725882_a_at) / Fold change /veh RNFT2 (11725882_a_at) / RFU NR4A2 (11747474_a_at) / Fold change /veh NR4A2 (11747474_a_at) / RFU ABCC12 (11746883_a_at) / Fold change /veh ABCC12 (11746883_a_at) / RFU TMEM136 (11760407_x_at) / Fold change /veh TMEM136 (11760407_x_at) / RFU CLDN22 /// WWC2 (11732394_at) / Fold change /veh CLDN22 /// WWC2 (11732394_at) / RFU HLA-DPB1 (11760878_x_at) / Fold change /veh HLA-DPB1 (11760878_x_at) / RFU SPINT1 (11716480_a_at) / Fold change /veh SPINT1 (11716480_a_at) / RFU GAP43 (11754022_s_at) / Fold change /veh GAP43 (11754022_s_at) / RFU A4GNT (11735810_at) / Fold change /veh A4GNT (11735810_at) / RFU PRB3 (11715151_x_at) / Fold change /veh PRB3 (11715151_x_at) / RFU TUBB4B (11761932_at) / Fold change /veh TUBB4B (11761932_at) / RFU CAPN14 (11732068_a_at) / Fold change /veh CAPN14 (11732068_a_at) / RFU TMCC2 (11721928_a_at) / Fold change /veh TMCC2 (11721928_a_at) / RFU IRGQ (11745062_a_at) / Fold change /veh IRGQ (11745062_a_at) / RFU FAM174B (11720279_a_at) / Fold change /veh FAM174B (11720279_a_at) / RFU TMPRSS4 (11748680_a_at) / Fold change /veh TMPRSS4 (11748680_a_at) / RFU FAM212B (11763350_a_at) / Fold change /veh FAM212B (11763350_a_at) / RFU PLEKHG5 (11743358_a_at) / Fold change /veh PLEKHG5 (11743358_a_at) / RFU ZSCAN30 (11745921_a_at) / Fold change /veh ZSCAN30 (11745921_a_at) / RFU CMKLR1 (11741424_a_at) / Fold change /veh CMKLR1 (11741424_a_at) / RFU LOC101060620 /// MAPK8IP1 (11723275_at) / Fold change /veh LOC101060620 /// MAPK8IP1 (11723275_at) / RFU SPTSSB (11747773_x_at) / Fold change /veh SPTSSB (11747773_x_at) / RFU PRSS12 (11739890_at) / Fold change /veh PRSS12 (11739890_at) / RFU BIN1 (11741810_x_at) / Fold change /veh BIN1 (11741810_x_at) / RFU WNT11 (11732464_a_at) / Fold change /veh WNT11 (11732464_a_at) / RFU C10orf10 (11716521_a_at) / Fold change /veh C10orf10 (11716521_a_at) / RFU C5orf56 (11738089_at) / Fold change /veh C5orf56 (11738089_at) / RFU CYB561 (11721691_x_at) / Fold change /veh CYB561 (11721691_x_at) / RFU ANKRD19P (11752326_a_at) / Fold change /veh ANKRD19P (11752326_a_at) / RFU OR2T12 /// OR2T33 /// OR2T8 (11738714_s_at) / Fold change /veh OR2T12 /// OR2T33 /// OR2T8 (11738714_s_at) / RFU VCAN (11748164_a_at) / Fold change /veh VCAN (11748164_a_at) / RFU JSRP1 (11732532_at) / Fold change /veh JSRP1 (11732532_at) / RFU KRTAP10-11 (11738290_x_at) / Fold change /veh KRTAP10-11 (11738290_x_at) / RFU MYO3A (11730013_a_at) / Fold change /veh MYO3A (11730013_a_at) / RFU EBF3 (11725865_a_at) / Fold change /veh EBF3 (11725865_a_at) / RFU CAMK2N1 (11719241_x_at) / Fold change /veh CAMK2N1 (11719241_x_at) / RFU C5orf56 (11738088_a_at) / Fold change /veh C5orf56 (11738088_a_at) / RFU OLFML3 (11715873_a_at) / Fold change /veh OLFML3 (11715873_a_at) / RFU LOC100653217 /// NTM (11731650_a_at) / Fold change /veh LOC100653217 /// NTM (11731650_a_at) / RFU MAPK11 (11762145_a_at) / Fold change /veh MAPK11 (11762145_a_at) / RFU FIZ1 (11724087_x_at) / Fold change /veh FIZ1 (11724087_x_at) / RFU OASL (11726364_x_at) / Fold change /veh OASL (11726364_x_at) / RFU SOX15 (11748057_x_at) / Fold change /veh SOX15 (11748057_x_at) / RFU CD79A (11719716_a_at) / Fold change /veh CD79A (11719716_a_at) / RFU HIST1H1D (11736915_at) / Fold change /veh HIST1H1D (11736915_at) / RFU CASKIN2 (11723855_a_at) / Fold change /veh CASKIN2 (11723855_a_at) / RFU LOC730098 (11760151_x_at) / Fold change /veh LOC730098 (11760151_x_at) / RFU OR4N2 (11742367_at) / Fold change /veh OR4N2 (11742367_at) / RFU PRRT2 (11749266_a_at) / Fold change /veh PRRT2 (11749266_a_at) / RFU SNX32 (11753110_a_at) / Fold change /veh SNX32 (11753110_a_at) / RFU CDHR5 (11726645_a_at) / Fold change /veh CDHR5 (11726645_a_at) / RFU RCAN1 (11760418_a_at) / Fold change /veh RCAN1 (11760418_a_at) / RFU FAM167A (11723789_a_at) / Fold change /veh FAM167A (11723789_a_at) / RFU FAM26E (11764081_at) / Fold change /veh FAM26E (11764081_at) / RFU ISYNA1 (11749810_s_at) / Fold change /veh ISYNA1 (11749810_s_at) / RFU ACY1 (11761880_at) / Fold change /veh ACY1 (11761880_at) / RFU 11764098_at / Fold change /veh 11764098_at / RFU SAMD14 (11745864_x_at) / Fold change /veh SAMD14 (11745864_x_at) / RFU NPB (11741838_a_at) / Fold change /veh NPB (11741838_a_at) / RFU TMPRSS6 (11731388_a_at) / Fold change /veh TMPRSS6 (11731388_a_at) / RFU KRTAP10-2 (11738614_at) / Fold change /veh KRTAP10-2 (11738614_at) / RFU ARHGAP8 /// PRR5-ARHGAP8 (11727945_x_at) / Fold change /veh ARHGAP8 /// PRR5-ARHGAP8 (11727945_x_at) / RFU KRTAP5-7 /// NADSYN1 (11734609_at) / Fold change /veh KRTAP5-7 /// NADSYN1 (11734609_at) / RFU RASL12 (11751679_a_at) / Fold change /veh RASL12 (11751679_a_at) / RFU CDKN2B (11736163_a_at) / Fold change /veh CDKN2B (11736163_a_at) / RFU PRF1 (11729649_at) / Fold change /veh PRF1 (11729649_at) / RFU, ZNF638 /// ZNF638-IT1 / Fold change vs veh, ZNF638 /// ZNF638-IT1 / RFU, PANK3 / Fold change vs veh, PANK3 / RFU, SH3YL1 / Fold change vs veh, SH3YL1 / RFU, ZEB2 / Fold change vs veh, ZEB2 / RFU, NRIP1 / Fold change vs veh, NRIP1 / RFU, PTTG1IP / Fold change vs veh, PTTG1IP / RFU, CAPN2 / Fold change vs veh, CAPN2 / RFU, MED14 / Fold change vs veh, MED14 / RFU, SNORA58 / Fold change vs veh, SNORA58 / RFU, C1orf63 / Fold change vs veh, C1orf63 / RFU, LRRFIP1 / Fold change vs veh, LRRFIP1 / RFU, NDUFAF7 / Fold change vs veh, NDUFAF7 / RFU, SLC12A2 / Fold change vs veh, SLC12A2 / RFU, IBTK / Fold change vs veh, IBTK / RFU, ESF1 / Fold change vs veh, ESF1 / Fold change vs veh, TMEM50B / RFU, TAOK1 / Fold change vs veh, TAOK1 / RFU, ACBD3 / Fold change vs veh, ACBD3 / RFU, TMA16 / Fold change vs veh, TMA16 / RFU, RWDD3 / Fold change vs veh, RWDD3 / RFU, BCAT1 / Fold change vs veh, BCAT1 / RFU, EDEM3 / Fold change vs veh, EDEM3 / RFU, TMEM33 / Fold change vs veh, TMEM33 / RFU, WDR75 / Fold change vs veh, WDR75 / RFU, AHCTF1 / Fold change vs veh, AHCTF1 / RFU, TFRC / Fold change vs veh, TFRC / RFU, ZDHHC17 / Fold change vs veh, ZDHHC17 / RFU, NOM1 / Fold change vs veh, NOM1 / RFU, ARL8B / Fold change vs veh, ARL8B / RFU, ZBTB11 / Fold change vs veh, ZBTB11 / RFU, TAMM41 / Fold change vs veh, TAMM41 / RFU, KIAA1704 /// LOC100996395 / Fold change vs veh, KIAA1704 /// LOC100996395 / RFU, ING1 / Fold change vs veh, ING1 / RFU, TRMT61B / Fold change vs veh, TRMT61B / RFU, FUBP3 / Fold change vs veh, FUBP3 / RFU, TP53 / Fold change vs veh, TP53 / RFU, TNKS2 / Fold change vs veh, TNKS2 / RFU, ZFP14 / Fold change vs veh, ZFP14 / RFU, ACTR2 / Fold change vs veh, ACTR2 / RFU, PPP3R1 / Fold change vs veh, PPP3R1 / RFU, PIK3R1 / Fold change vs veh, PIK3R1 / RFU, HNRNPA1 / Fold change vs veh, HNRNPA1 / RFU, RNF170 / Fold change vs veh, RNF170 / RFU, ZNF28 / Fold change vs veh, ZNF28 / RFU, RNGTT / Fold change vs veh, RNGTT / RFU, OGT / Fold change vs veh, OGT / RFU, BRD1 / Fold change vs veh, BRD1 / RFU, MARS / Fold change vs veh, MARS / RFU, ZNF655 / Fold change vs veh, ZNF655 / RFU, FAHD1 / Fold change vs veh, FAHD1 / RFU, BDP1 / Fold change vs veh, BDP1 / RFU, LRRCC1 / Fold change vs veh, LRRCC1 / RFU, ARID1A / Fold change vs veh, ARID1A / RFU, ZNF146 / Fold change vs veh, ZNF146 / RFU, ZNF330 / Fold change vs veh, ZNF330 / RFU, GPN3 / Fold change vs veh, GPN3 / RFU, C9orf123 / Fold change vs veh, C9orf123 / RFU, N4BP2L2 / Fold change vs veh, N4BP2L2 / RFU, ARFIP1 / Fold change vs veh, ARFIP1 / RFU, FAM179B / Fold change vs veh, FAM179B / RFU, BCL10 / Fold change vs veh, BCL10 / RFU, UHRF1BP1L / Fold change vs veh, UHRF1BP1L / RFU, BET1 / Fold change vs veh, BET1 / RFU, CNOT2 / Fold change vs veh, CNOT2 / RFU, ZNF268 / Fold change vs veh, ZNF268 / Fold change vs veh, ZNF507 / RFU, DGCR2 / Fold change vs veh, DGCR2 / RFU, WDSUB1 / Fold change vs veh, WDSUB1 / Fold change vs veh, HSP90B1 /// MIR3652 / RFU, ADSS / Fold change vs veh, ADSS / RFU, GK / Fold change vs veh, GK / RFU, ZNF148 / Fold change vs veh, ZNF148 / RFU, TAF9 / Fold change vs veh, TAF9 / RFU, SLC1A5 / Fold change vs veh, SLC1A5 / RFU, SLMO2 / Fold change vs veh, SLMO2 / RFU, ABCC4 / Fold change vs veh, ABCC4 / RFU, LOC101060439 /// RAP1B / Fold change vs veh, LOC101060439 /// RAP1B / RFU, RFX7 / Fold change vs veh, RFX7 / RFU, GTPBP10 / Fold change vs veh, GTPBP10 / RFU, CNEP1R1 / Fold change vs veh, CNEP1R1 / RFU, BIVM-ERCC5 /// ERCC5 / Fold change vs veh, BIVM-ERCC5 /// ERCC5 / RFU, ILF3 / Fold change vs veh, ILF3 / RFU 11762660_at / Fold change /veh 11762660_at / RFU VCAN (11757783_s_at) / Fold change /veh VCAN (11757783_s_at) / RFU DDX43 (11728927_at) / Fold change /veh DDX43 (11728927_at) / RFU KRT8 (11758188_x_at) / Fold change /veh KRT8 (11758188_x_at) / RFU NKD1 (11759106_at) / Fold change /veh NKD1 (11759106_at) / RFU SRD5A1 (11742802_a_at) / Fold change /veh SRD5A1 (11742802_a_at) / RFU TPSAB1 /// TPSB2 (11721975_s_at) / Fold change /veh TPSAB1 /// TPSB2 (11721975_s_at) / RFU GSTM3 (11746129_a_at) / Fold change /veh GSTM3 (11746129_a_at) / RFU IL23R (11737362_x_at) / Fold change /veh IL23R (11737362_x_at) / RFU TMEM51 (11727254_a_at) / Fold change /veh TMEM51 (11727254_a_at) / RFU PIWIL2 (11732686_x_at) / Fold change /veh PIWIL2 (11732686_x_at) / RFU ORM1 (11744905_x_at) / Fold change /veh ORM1 (11744905_x_at) / RFU CCDC152 (11743942_at) / Fold change /veh CCDC152 (11743942_at) / RFU ECM1 (11717891_a_at) / Fold change /veh ECM1 (11717891_a_at) / RFU IL23R (11748794_a_at) / Fold change /veh IL23R (11748794_a_at) / RFU TNFAIP8L3 (11732012_x_at) / Fold change /veh TNFAIP8L3 (11732012_x_at) / RFU MBOAT4 (11741988_at) / Fold change /veh MBOAT4 (11741988_at) / RFU 11764193_at / Fold change /veh 11764193_at / RFU TMEM53 (11763286_at) / Fold change /veh TMEM53 (11763286_at) / RFU MAGEB2 (11727129_at) / Fold change /veh MAGEB2 (11727129_at) / RFU TMEM200A (11744735_a_at) / Fold change /veh TMEM200A (11744735_a_at) / RFU CCDC152 (11751479_a_at) / Fold change /veh CCDC152 (11751479_a_at) / RFU FAM211A (11726209_a_at) / Fold change /veh FAM211A (11726209_a_at) / RFU RGS16 (11746705_a_at) / Fold change /veh RGS16 (11746705_a_at) / RFU VCAN (11755009_s_at) / Fold change /veh VCAN (11755009_s_at) / RFU RHOB (11743442_s_at) / Fold change /veh RHOB (11743442_s_at) / RFU RGS16 (11720943_a_at) / Fold change /veh RGS16 (11720943_a_at) / RFU RGS16 (11720944_at) / Fold change /veh RGS16 (11720944_at) / RFU, VPS4B / Fold change vs veh, VPS4B / RFU, CREB1 / Fold change vs veh, CREB1 / RFU, DNAJC13 / Fold change vs veh, DNAJC13 / RFU, GNAQ / Fold change vs veh, GNAQ / RFU, CDK5R1 / Fold change vs veh, CDK5R1 / RFU, ZRANB3 / Fold change vs veh, ZRANB3 / RFU, CUL4A / Fold change vs veh, CUL4A / RFU, CCNY / Fold change vs veh, CCNY / RFU, UFL1 / Fold change vs veh, UFL1 / RFU, COG3 / Fold change vs veh, COG3 / RFU, DIAPH2 / Fold change vs veh, DIAPH2 / RFU, SKA2 / Fold change vs veh, SKA2 / RFU, AFF3 / Fold change vs veh, AFF3 / RFU, LMF1 / Fold change vs veh, LMF1 / RFU, IPO11 / Fold change vs veh, IPO11 / RFU, DFFB / Fold change vs veh, DFFB / RFU, FOXP1 / Fold change vs veh, FOXP1 / RFU, CARD8 / Fold change vs veh, CARD8 / RFU, STRN3 / Fold change vs veh, STRN3 / RFU, ADK / Fold change vs veh, ADK / RFU, RASSF2 / Fold change vs veh, RASSF2 / RFU, WIPF1 / Fold change vs veh, WIPF1 / RFU, LARP1B / Fold change vs veh, LARP1B / RFU, RASA1 / Fold change vs veh, RASA1 / RFU, RB1 / Fold change vs veh, RB1 / RFU, PPFIA1 / Fold change vs veh, PPFIA1 / RFU, MAT2A / Fold change vs veh, MAT2A / RFU, CCT5 / Fold change vs veh, CCT5 / RFU, WDR92 / Fold change vs veh, WDR92 / RFU, CUX1 / Fold change vs veh, CUX1 / RFU, TTC7A / Fold change vs veh, TTC7A / RFU, TMEM135 / Fold change vs veh, TMEM135 / RFU, DEPTOR / Fold change vs veh, DEPTOR / RFU, CPM / Fold change vs veh, CPM / RFU, DNAJB6 / Fold change vs veh, DNAJB6 / RFU, CACNA2D3 / Fold change vs veh, CACNA2D3 / RFU, DTX4 / Fold change vs veh, DTX4 / RFU, TFCP2 / Fold change vs veh, TFCP2 / RFU, GMCL1 /// GMCL1P1 / Fold change vs veh, GMCL1 /// GMCL1P1 / RFU, AEBP2 / Fold change vs veh, AEBP2 / RFU, SNHG1 /// SNORD22 /// SNORD25 /// SNORD26 /// SNORD27 /// SNORD28 /// SNORD29 /// SNORD31 / Fold change vs veh, SNHG1 /// SNORD22 /// SNORD25 /// SNORD26 /// SNORD27 /// SNORD28 /// SNORD29 /// SNORD31 / Fold change (Aza/veh), C12orf56 (ProbeSet 11735607_a_at) / Fold change (ACY-1035/veh), C12orf56 (ProbeSet 11735607_a_at) / Fold change (Aza/veh), FGFR1OP (ProbeSet 11751329_s_at) / Fold change (ACY-1035/veh), FGFR1OP (ProbeSet 11751329_s_at) / Fold change (Aza/veh), VPS36 (ProbeSet 11739960_a_at) / Fold change (ACY-1035/veh), VPS36 (ProbeSet 11739960_a_at) / RFU SYPL1 (11715823_x_at) / Fold change /veh SYPL1 (11715823_x_at) / RFU IGFBP7 (11715501_s_at) / Fold change /veh IGFBP7 (11715501_s_at) / RFU REEP3 (11722064_at) / Fold change /veh REEP3 (11722064_at) / RFU IGLL1 (11728026_x_at) / Fold change /veh IGLL1 (11728026_x_at): dose or concentration left out as unconfirmed
Conditions: ProbeSet 11758919_x_at; LIST D

For `Nc1ccc(-c2cccs2)cc1NC(=O)c1ccc2c(c1)cc(C1CC1)n2CCN1CCOCC1` [ACY-1035], the “Fold change vs veh, TFCP2” value was 0.94.

Source: article PMC5218480 (PLoS ONE, 2017)
